From patent US20210207099A1, “METHODS AND COMPOSITIONS FOR GENERATING CELLS OF ENDODERMAL LINEAGE AND BETA CELLS AND USES THEREOF” (priority 2018, published 2021) come the findings set out here.

What all share (type): cell-based, human
Data set [1] relates to plated pancreatic progenitors. Put plainly: Single-cell RNA sequencing of plated pancreatic progenitors treated throughout stage 4. The conditions noted are these: 5 μM nocodazole throughout stage 4. On the procedure:
Cells generated with the suspension protocol were single-cell dispersed with TrypLE from clusters at the end of stage 3 and seeded onto collagen 1 coated 24-well plates at 0.625×10^6 cells/cm^2. Either 0.5 μM latrunculin A or 5 μM nocodazole were added throughout the entirety of stage 4. At the end of stage 4, cells were single-cell dispersed, suspended in DMEM, and submitted to the Washington University Genome Technology Access Center. Library preparation was done using the Chromium Single Cell 3′ Library and Gel Bead Kit v2 (10× Genomics, 120237). Briefly, single cells were isolated in emulsions using a microfluidic platform, and each single cell emulsion was barcoded with a unique set of oligonucleotides. The GemCode Platform was used to carry out reverse transcription within each single cell emulsion, which was amplified to construct a library. The libraries were sequenced with paired-end reads of 26×98 primerbp using the Illumina HiSeq2500.
Seurat v2.0 was used to perform single cell RNA analyses. Duplicate cells and cells with high mitochondrial gene expression were filtered out using FilterCells (>9000 total genes and >5% mitochondrial genes for Untreated Control, >6000 genes and >6% mitochondrial genes for latrunculin A, >12000 genes and >4% mitochondrial genes for nocodazole). Each data set was normalized using global-scaling normalization. FindVariableGenes identified and removed outlier genes using scaled z-score dispersion. The datasets were then combined and a canonical correlation analysis (CCA) was performed with RunMultiCCA. AlignSubspace was used to align the CCA subspaces and generated a new dimension reduction for integrated analysis. Unsupervised TSNE plots were generated using RunTSNE, and the resulting clusters were defined and labeled using FindMarkers. VInPlot (Violin plots) and FeaturePlot (tsne plots) were used to visualize differences in gene expressions across each cluster and conditions.

The test system of data set [2] is HUES8 cells, exocrine differentiation protocol. The data set can be described thus: Exocrine pancreas differentiation with cytoskeletal compounds. The conditions noted are these: 1 μM for the entirety of stage 4. As to the method: (§1) For differentiation to other endodermal lineages, HUES8 stem cells were cultured and passaged normally. Differentiations were initiated 24 hours after seeding 24-well plates at 0.521×10^6 cells/cm^2. Protocols for exocrine pancreas, intestine, and liver were adapted, from literature. Either latrunculin A or nocodazole were added as indicated in each protocol. All three differentiation protocols used the same stage 1 to induce endoderm. Stage 1 (4 days): BE1 media+100 ng/mL Activin A+3 μM CHIR99021 for the first 24 hours, followed with 3 days of BE1 containing 100 ng/mL Activin A only.
Exocrine Pancreas: Stage 2 (2 days): BE2 media+50 ng/mL KGF. Stage 3 (2 days): BE3+50 ng/mL KGF, 200 nM LDN193189, 500 nM TPPB, 2 μM retinoic acid, and 0.25 μM SANT1. Stage 4 (4 days): BE3+50 ng/mL KGF, 200 nM LDN193189, 500 nM TPPB, 0.1 μM retinoic acid, and 0.25 μM SANT1. Either 1 μM latrunculin A was added for the first 24 hours of this stage, or 1 μM nocodazole was added for the entirety of stage 4. Stage 5 (6 days): S5 media+10 ng/mL bFGF. 10 mM nicotinamide (MilliporeSigma, 72340) was added for the last two days.

Data set [3] has as its system HUES8 cells, intestinal differentiation protocol. The data set can be described thus: Intestine differentiation with cytoskeletal compounds. Conditions: 1 μM for the entirety of stage 2. On the procedure:
as §1
Intestine Differentiation: Stage 2 (4 days): BE2 media+3 μM CHIR99021+500 ng/mL FGF4 (R&D Systems, 235-F4). Either 1 μM latrunculin A was added for the first 24 hours of this stage, or 1 μM nocodazole was added for the entirety of stage 2. Stage 3 (7 days): BE3 media+500 ng/mL R-spondin1 (R&D Systems, 4645-RS)+100 ng/mL EGF (R&D Systems, 236-EG)+200 nM LDN193189.

Data set [4] relates to HUES8 cells, hepatic differentiation protocol. Put plainly: Liver differentiation with cytoskeletal compounds. Conditions: 1 μM for the first 24 hours of stage 3. As to the method:
as §1
Liver Differentiation: Stage 2 (2 days): BE2 media+50 ng/mL KGF. Stage 3 (4 days): BE3 media+10 ng/mL bFGF+30 ng/mL BMP4 (R&D Systems, 314-BP). For the first 24 hours only, 2 μM retinoic acid and either 1 μM latrunculin A or 1 μM nocodazole were added. Stage 4 (5 days): BE3 media+20 ng/mL OSM (R&D Systems, 295-OM)+20 ng/mL HGF (R&D Systems, 294-HG)+100 nM dexamethasone (MilliporeSigma, D4902).

The subject of data set [5] is TGFβ signaling (phosphorylated SMAD). The data set can be described thus: Western blot of SMAD 2/3 phosphorylation in Stage 6 cells. The conditions noted are these: lesser extent than Alk5i. As to the method: Protein was extracted from cell clusters after washing with PBS by placing in western blot lysis buffer consisting 50 mM HEPES, 140 mM NaCl (MilliporeSigma; 7647-14-5), 1 mM EDTA (MilliporeSigma, 1233508), 1% Triton X-100, 0.1% Na-deoxycholate (MilliporeSigma: D6750), 0.1% SDS (ThermoScientific; 24730020), 1 mM Na3VO4 (MilliporeSigma; 450243), 10 mM NaF (MilliporeSigma; S7920), and 1% Protease Inhibitor Cocktail (MilliporeSigma; p8340), incubating on a shaker for 15 min at 4° C., and centrifuging at 10000 RCF for 10 min at 4° C. Protein amount was quantified with the Pierce BCA Protein Assay (Thermo Scientific; 23228). Protein (30 μg) was loaded onto a 4-20% gradient polyacrylamide gel (Invitrogen; SP04200BOX), resolved by electrophoresis, and transferred onto a 0.45 μm nitrocellulose membrane (BioRad; 1620115). The nitrocellulose membrane was blocked with Blotting Grade Blocker (BioRad; 170-6404) and incubated with rabbit-anti-phospho-SMAD⅔ 1:1000 (Cell Signaling Technologies; 8828) and rabbit-anti-Actin 1:1000 (Santa Cruz Biotechnology; SC1616) antibodies in blocker overnight at 4° C. Membrane was washed and stained with rabbit secondary antibody 1:2500 (Jackson Immuno Research Laboratories; 211-032-171) in blocker for 2 hr at 4° C. and developed using SuperSignal West Femto (Thermo Scientific; 34096). Images were taken on an Odyssey FC (Li-COR). After imaging, the nitrocellulose membrane was stripped using Restore Western Blot Stripping Buffer (Thermo Scientific; 21059), incubated with rabbit-anti-SMAD⅔ (Cell Signaling Technologies; 8685) antibody overnight at 4° C., washed and stained with rabbit secondary antibody 1:2500 in blocker for 2 hr 4° C., developed using SuperSignal West Femto, and imaged using the Odyssey FC.
A general note: In western blotting, separated proteins are transferred to a membrane and probed.

The test system of another data set is TGFBR1. The data set can be described thus: Lentiviral shRNA knockdown of TGFBR1 in Stage 6 cells. The conditions noted are these: real-time PCR. On the procedure: TBP was used as a normalization gene.
pLKO.1 TRC plasmids containing shRNA sequences contained the following sequences: shRNA GFP, […] (SEQ ID NO: 89); shRNA TGFBR1 #1, […] (SEQ ID NO: 90); shRNA TGFBR1 #2, […] (SEQ ID NO: 91). Lentivirus particles were generated and titered using pMD-Lgp/RRE and pCMV-G, and RSV-REV packaging plasmids to contain shRNA. Stage 6 Day 1 cells were single cell dispersed using TrypLE, and 3 million cells were seeded in 4 mL ESFM lentivirus particles at MOI 3-5 on the shaker. Transduced cells were washed with fresh ESFM 16 hr post transduction. RNA extraction and static GSIS was performed on stage 6 day 13.
Background: Quantitative PCR measures a nucleic acid by following its amplification.

`COC(=O)Nc1nc2ccc(C(=O)c3cccs3)cc2[nH]1` [nocodazole]: the “percentage of exocrine-like progenitors” value in data set [1] worked out at 67.0%. Besides, in data set [2], the endocrine induction entry is “inhibited endocrine induction”; the “trypsin gene expression (PRSS1, PRSS2) and immunostaining” value is “greatly increased trypsin gene expression”. For the same compound, the “CDX2 gene expression and immunostaining” value in data set [3] was “greatly increased CDX2 gene expression and immunostaining”. Also, in data set [4], the hepatocyte gene expression entry is recorded as “increased hepatocyte gene expression” and the immunostaining for albumin entry was “more abundant with nocodazole treatment”.
On to “TGFBR1 #1: lentivirus carrying shRNA against TGFBR1, GATCATGATTACTGTCGATAA (SEQ ID NO: 90)”, for which the “SMAD phosphorylation after shRNA transduction” value in data set [5] is recorded as “reduced SMAD phosphorylation”. Besides, in the data set with TGFBR1, the “TGFBR1 transcript compared to control virus targeting GFP” value is “reducing TGFBR1 transcript”.
In the case of “TGFBR1 #2: lentivirus carrying shRNA against TGFBR1, GCAGGATTCTTTAGGCTTTAT (SEQ ID NO: 91)”, the “SMAD phosphorylation after shRNA transduction” value in data set [5] is listed as “reduced SMAD phosphorylation”. Besides, the “TGFBR1 transcript compared to control virus targeting GFP” value in the data set on TGFBR1 is listed as “reducing TGFBR1 transcript”.
